According to ChEMBL document CHEMBL5233249, “Recent advancements in the development of heterocyclic anti-inflammatory agents” (Eur J Med Chem, 2020):
≈ marks a conversion by molar mass, not a printed value.

Legend:
[1] = system: Rattus norvegicus; assay: Anti-inflammatory activity against Carrageenan-induced paw edema in PO dosed Wistar albino rat assessed as inhibition of edema measured after 3 hr relative to control; assay type: functional; design: scale not given: the % may be the effect or the level left
[2] = system: Rattus norvegicus; assay: Anti-inflammatory activity against Carrageenan-induced paw edema in PO dosed Wistar albino rat assessed as inhibition of edema measured after 1 hr relative to control; assay type: functional; design: scale not given: the % may be the effect or the level left
[3] = system: Rattus norvegicus; assay: Anti-inflammatory activity against Carrageenan-induced paw edema in PO dosed Wistar albino rat assessed as inhibition of edema measured after 2 hr relative to control; assay type: functional; design: scale not given: the % may be the effect or the level left
[4] = system: Rattus norvegicus; assay: Anti-inflammatory activity against Carrageenan-induced paw edema in PO dosed Wistar albino rat assessed as inhibition of edema measured after 4 hr relative to control; assay type: functional; design: scale not given: the % may be the effect or the level left
[5] = system: RAW264.7; assay: Anti-inflammatory activity in mouse RAW264.7 cells assessed as inhibition of LPS-induced NO production in macrophages; assay type: functional, cell-based
[6] = system: Erythrocyte; assay: Anti-inflammatory activity in human red blood cells assessed as stabilization of cell membrane; assay type: functional, cell-based
[7] = target: T1, Prostaglandin G/H synthase 2 (Homo sapiens) (UniProt P35354); assay: Inhibition of COX-2 (unknown origin) assessed as inhibition at 100 mg/kg relative to control; assay type: organism-based
T1 sequence (whole entry): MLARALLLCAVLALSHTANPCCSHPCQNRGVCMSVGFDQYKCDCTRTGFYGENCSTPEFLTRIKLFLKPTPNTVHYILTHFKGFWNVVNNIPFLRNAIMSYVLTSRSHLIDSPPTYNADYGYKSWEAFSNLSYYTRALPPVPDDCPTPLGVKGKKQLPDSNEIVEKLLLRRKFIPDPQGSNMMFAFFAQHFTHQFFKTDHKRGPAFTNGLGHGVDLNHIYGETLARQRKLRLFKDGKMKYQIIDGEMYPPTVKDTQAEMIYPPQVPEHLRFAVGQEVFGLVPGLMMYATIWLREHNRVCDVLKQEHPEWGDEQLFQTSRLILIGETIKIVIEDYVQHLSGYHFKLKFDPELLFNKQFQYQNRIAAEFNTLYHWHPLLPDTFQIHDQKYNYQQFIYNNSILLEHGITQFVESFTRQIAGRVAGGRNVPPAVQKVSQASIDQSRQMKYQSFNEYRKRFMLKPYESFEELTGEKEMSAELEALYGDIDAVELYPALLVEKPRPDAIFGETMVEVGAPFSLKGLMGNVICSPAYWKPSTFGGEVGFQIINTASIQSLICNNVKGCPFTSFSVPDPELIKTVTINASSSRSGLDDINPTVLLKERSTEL

[8] = Antioxidant activity assessed as DPPH radical scavenging activity incubated for 20 mins by spectrophotometric analysis; assay type: functional
[9] = Anti-inflammatory activity assessed using bovine serum albumin/egg albumin proteins assessed as protein denaturation measured at 95 degC for 20 mins by measuring turbidity by UV-Vis spectrophotometer; assay type: functional
[10] = system: Erythrocyte; assay: Anti-inflammatory activity in rat red blood cells assessed as stabilization of cell membrane at 200 microg/ml relative to control; assay type: functional; details: dose 200 µg/ml
[11] = system: Erythrocyte; assay: Anti-inflammatory activity in rat red blood cells assessed as stabilization of cell membrane at 500 microg/ml relative to control; assay type: functional; details: dose 500 µg/ml
[12] = system: Rattus norvegicus; assay: Anti-ulcerative activity in aspirin induced Wistar rat ulcer model assessed as inhibition of ulcer index at 20 mg/kg,po; assay type: functional
[13] = system: Rattus norvegicus; assay: Anti-ulcerative activity in Carrageenan-induced Sprague-Dawley rat ulcer model assessed as inhibition of ulcer index at 10 mg/kg,po; assay type: functional
[14] = system: Mus musculus; assay: Anti-inflammatory activity against Carrageenan-induced paw edema in mouse model assessed as inhibition of edema at 100 mg/kg measured after 3 hrs relative to control; assay type: functional; design: scale not given: the % may be the effect or the level left
[15] = system: RAW264.7; assay: Anti-inflammatory activity in mouse RAW264.7 cells assessed as inhibition of LPS-induced NO production measured after 24 hrs; assay type: functional, cell-based; details: RAW264.7, 24 h
[16] = Selectivity index, ratio of IC50 for ovine COX1 to IC50 for recombinant human COX2
[17] = target: T2, Polyunsaturated fatty acid 5-lipoxygenase (Homo sapiens, UniProt P09917); assay: Inhibition of 5-LOX (unknown origin) after 5 mins by colorimetric method
T2 sequence (P09917 whole entry): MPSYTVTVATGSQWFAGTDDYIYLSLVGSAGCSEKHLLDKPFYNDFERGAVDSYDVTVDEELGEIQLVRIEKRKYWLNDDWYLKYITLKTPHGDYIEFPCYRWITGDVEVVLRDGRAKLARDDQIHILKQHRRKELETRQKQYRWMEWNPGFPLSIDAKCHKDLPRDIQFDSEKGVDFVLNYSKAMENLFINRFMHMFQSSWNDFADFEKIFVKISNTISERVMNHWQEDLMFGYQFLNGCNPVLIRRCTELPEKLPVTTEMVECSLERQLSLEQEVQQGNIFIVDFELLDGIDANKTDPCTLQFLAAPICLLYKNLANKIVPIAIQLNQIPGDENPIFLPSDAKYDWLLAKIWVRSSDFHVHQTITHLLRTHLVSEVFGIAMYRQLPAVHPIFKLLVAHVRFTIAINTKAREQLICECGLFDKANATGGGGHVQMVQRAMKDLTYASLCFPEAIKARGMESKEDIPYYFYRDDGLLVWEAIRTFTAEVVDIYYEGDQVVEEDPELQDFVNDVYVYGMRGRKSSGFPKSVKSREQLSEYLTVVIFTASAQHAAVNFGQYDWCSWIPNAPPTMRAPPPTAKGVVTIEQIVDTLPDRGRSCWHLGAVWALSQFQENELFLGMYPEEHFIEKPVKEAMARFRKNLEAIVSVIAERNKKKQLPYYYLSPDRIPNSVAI

[18] = system: Rattus norvegicus; assay: Anti-inflammatory activity against Carrageenan-induced paw edema in PO dosed Wistar albino rat assessed as reduction in hind paw edema volume at 20 mg/kg relative to control; assay type: functional; design: scale not given: the % may be the effect or the level left
[19] = Anti-inflammatory activity assessed as protein denaturation using bovine serum albumin relative to control; assay type: functional
[20] = system: Rattus norvegicus; assay: Anti-inflammatory activity in Carageenan-induced foot paw edema in Swiss albino rat assessed as reduction in volume of paw edema measured after 1 hr relative to control; assay type: functional; design: scale not given: the % may be the effect or the level left
[21] = system: Rattus norvegicus; assay: Anti-inflammatory activity in Carageenan-induced foot paw edema in Swiss albino rat assessed as reduction in volume of paw edema measured after 2 hr relative to control; assay type: functional; design: scale not given: the % may be the effect or the level left
[22] = system: Rattus norvegicus; assay: Anti-inflammatory activity in Carageenan-induced foot paw edema in Swiss albino rat assessed as reduction in volume of paw edema measured after 4 hr relative to control; assay type: functional; design: scale not given: the % may be the effect or the level left
[23] = system: Rattus norvegicus; assay: Anti-inflammatory activity in Carageenan-induced foot paw edema in Swiss albino rat assessed as reduction in volume of paw edema measured after 6 hr relative to control; assay type: functional; design: scale not given: the % may be the effect or the level left
[24] = system: Mus musculus; assay: Anti-inflammatory activity in Carrageenan-induced paw edema mouse model assessed as inhibition of granuloma measured after 24 hrs relative to control; assay type: functional
[25] = system: Rattus norvegicus; assay: Anti-inflammatory activity against formalin-induced foot paw edema in Wistar rat at 5 mg/kg, po assessed as inhibition of edema measured after 4 hr relative to control; assay type: functional
[26] = system: Rattus norvegicus; assay: Anti-inflammatory activity in Wistar rat assessed as reduced hind paw edema at 25 mg/kg relative to control; assay type: functional; design: scale not given: the % may be the effect or the level left

**Q.** With `N#CC(/N=N/c1ccc2c(c1)CCC2)=C(\N)N1CCCCC1` as the molecule, how does the Activity [1] read?
**A.** Its Activity is 63.95%.

**Q.** Which results are given for `CC(C)(CO)NC(=O)CCCC(=O)/C=C/c1cn(-c2ccccc2)nc1-c1ccccc1`?
**A.** Activity [2]: 40%; Activity [3]: 25.56%; Activity [4]: 30.95%

**Q.** With `C=CC1=CN=CC2C(=O)N3CCc4c([nH]c5ccccc45)C3=CC12` (centres undefined) as the molecule, how does the IC50 [5] read?
**A.** The IC50 was 1280 nM.

**Q.** For `Oc1ccccc1-c1cc(-c2cc3cc4ccccc4nc3s2)[nH]n1`, which EC50 [6] is on record?
**A.** Its EC50 is 11 µg/mL (≈ 32 µM).

**Q.** For `Cc1ccc(-c2nn(-c3ccccc3)cc2C(O)C(F)(F)C(=O)NN)cc1` (centres undefined), which inhibition [7] is on record?
**A.** Its inhibition is 33.7%.

**Q.** What about the Activity [8] of the same molecule?
**A.** Its Activity is 70.9%.

**Q.** Which IC50 [5] does the source give for `C=CC(CO)[C@@H]1C[C@H]2c3[nH]c4ccccc4c3CCN2C(=O)[C@H]1CO` (some centres undefined) here?
**A.** The IC50 was 1180 nM.

**Q.** With `COc1ccc(-c2nn(-c3ccccc3)cc2CCC(=O)OCc2cn(-c3cccc(Cl)c3)nn2)cc1` as the molecule, how does the IC50 [9] read?
**A.** The IC50 was 60.56 µg/mL (≈ 118 µM).

**Q.** What about the Activity [10] of the same molecule?
**A.** Its Activity is 70%.

**Q.** And the Activity [11]?
**A.** The Activity was 94%.

**Q.** With `CC(C)Cc1ccc(C(C)C(=O)O)cc1` (centres undefined) [IBUPROFEN] as the molecule, how does the UI [12] read?
**A.** The UI was 20.25.

**Q.** And the UI [13]?
**A.** The UI was 20.25.

**Q.** And the Activity [14]?
**A.** Its Activity is 70.65%.

**Q.** Which IC50 [15] does the source give for `C[C@@H]1C[C@H]2[C@@H]3CCC4=CC(=O)C=C[C@]4(C)[C@@]3(F)[C@@H](O)C[C@]2(C)[C@@]1(O)C(=O)CO` [DEXAMETHASONE] here?
**A.** Its IC50 is 620 nM.

**Q.** Which Selectivity Index [16] does the source give for `Cc1cc(-c2ccccc2)n(-c2nc3c(cnn3-c3ccccc3)c(=O)n2-c2ccccc2)n1` here?
**A.** Its Selectivity Index is 5.44.

**Q.** With `Oc1ccc(Cl)cc1-c1cc(-c2cc3cc4ccccc4nc3s2)[nH]n1` as the molecule, how does the EC50 [6] read?
**A.** The EC50 was 14 µg/mL (≈ 37.1 µM).

**Q.** With `N=C1/C(=N\Nc2ccc(Cl)cc2)C(N)=NN1c1ccc(S(N)(=O)=O)cc1` as the molecule, how does the IC50 [17] read?
**A.** The IC50 was 2310 nM.

**Q.** Which Activity [18] does the source give for `COc1ccc(N/N=C2\C(=O)N(CNc3c(C)cccc3C)N=C2Nc2ccccc2F)cc1` here?
**A.** The Activity was 51%.

**Q.** For `O=C(O)Cc1ccccc1Nc1c(Cl)cccc1Cl`, which Activity [19] is on record?
**A.** The Activity was 84.1%.

**Q.** Which results are given for `CCCC1Nc2cc(C(=O)N/N=C/c3ccc(Cl)cc3Cl)cc(C)c2N1` (centres undefined)?
**A.** Activity [20]: 45.5%; Activity [21]: 59.38%; Activity [22]: 81.4%; Activity [23]: 90.3%

**Q.** For `O=C1CSC(=S)C1NC1=NC2C(C=NN2c2ccccc2)C(=O)N1c1ccccc1` (centres undefined), which “inhibition (INH)” value [24] is on record?
**A.** The value was 45.6%.

**Q.** What about the inhibition in vivo at 5 mg/kg [25] of the same molecule?
**A.** The inhibition in vivo at 5 mg/kg was 85.7%.

**Q.** With `NS(=O)(=O)c1ccc(-n2nc(C(=O)NNC(=O)c3cccc(C(F)(F)F)c3)cc2-c2ccccc2)cc1` as the molecule, how does the Selectivity Index [16] read?
**A.** Its Selectivity Index is 10.

**Q.** What about the Activity [26] of the same molecule?
**A.** The Activity was 62.48%.
